Reference: patent EP3492067A1, “TYPE-17 COLLAGEN PRODUCTION PROMOTER” (Tomoike Industrial (H.K.) Limited, priority 2016, dated 2018)
Converted amounts (≈) assume the structure as drawn.

Experiments:
Type-17 collagen [1] = conditions: eft-400 skin model
Description: (§1) A tissue containing DMSO was prepared as a control.
(§2) The lysates of cultured tissue were subjected to western blotting using an anti-Type-17 collagen antibody (ab95123, Abcam).

physchem = conditions: distilled water
Description: (§3) A test for confirming water solubility of the pterostilbene glycoside described above was performed. More specifically, solubility in 100 ml of distilled water at room temperature was measured. Pterostilbene (aglycone) was used as a control.

Type-17 collagen [2] = assay: Western blotting of Type-17 collagen protein production in skin model cells; conditions: Homo sapiens, 168 h, read-out: expression amount of Type-17 collagen, increase in comparison with the control
Description: as §1, §2

[3] = Water solubility test in distilled water
Description: as §3

| amount of Type-17 collagen contained in skin model cells, increase compared with the control (Ctrl) (Type-17 collagen [1]) [times] | solubility (physchem) [µg/mL] | Structure (SMILES) | fold induction at 25 µM (Type-17 collagen [2]) | fold induction at 50 µM (Type-17 collagen [2]) | solubility [3] [µg/mL] |
| --- | --- | --- | --- | --- | --- |
| 1.2 | ~13 (≈ 22.4 µM) | COc1cc(/C=C/c2ccc(O[C@@H]3O[C@H](CO)[C@@H](O[C@H]4O[C@H](CO)[C@@H](O)[C@H](O)[C@H]4O)[C@H](O)[C@H]3O)cc2)cc(OC)c1 [pterostilbene diglycoside] | – | – | – |
| – | ~60 (≈ 143 µM) | COc1cc(/C=C/c2ccc(O[C@@H]3O[C@H](CO)[C@@H](O)[C@H](O)[C@H]3O)cc2)cc(OC)c1 [pterostilbene monoglycoside] | ~1.4 | ~1.6 | – |
| 1.6 | ~300000 (≈ 404000 µM) | COc1cc(/C=C/c2ccc(O[C@@H]3O[C@H](CO)[C@@H](O[C@H]4O[C@H](CO)[C@@H](O[C@H]5O[C@H](CO)[C@@H](O)[C@H](O)[C@H]5O)[C@H](O)[C@H]4O)[C@H](O)[C@H]3O)cc2)cc(OC)c1 [pterostilbene triglycoside] | – | – | – |
| – | – | COc1cc(/C=C/c2ccc(O)cc2)cc(OC)c1 [pterostilbene, Pterostilbene] | ~1.1 | ~1.4 | ~5 (≈ 19.5 µM) |
